Row | SMILES | boiling point [°C] | melting point [°C] | ready biodegradability | log10 vapour pressure (mmHg) | log10 biodegradation half-life (days) | log10 Koc (L/kg) | log10 Koa | log10 Henry constant (atm·m³/mol)
1 | CC=Cc1ccccc1 | 177 | -28.2 |  |  |  |  |  | 
2 | O=c1n(CCCN2CCN(c3cccc(Cl)c3)CC2)nc2ccccn12 |  | 87 |  |  |  |  |  | 
3 | CCCCC1CCC(OC(=O)C2CCC(CCCC)CC2)CC1 (stereo not drawn) |  |  | readily biodegradable |  |  |  |  | 
4 | O=C=NCCCCCCN=C=O | 255 | -67 |  |  |  |  |  | 
5 | CCCCCCOC(=O)c1ccccc1 | 272 |  |  |  |  |  |  | 
6 | CC(C(=O)O)c1ccc2c(c1)[nH]c1ccc(Cl)cc12 (stereo not drawn) |  | 198 |  |  |  |  |  | 
7 | ClC(Br)C(Cl)Br (stereo not drawn) | 195 | -26 |  |  |  |  |  | 
8 | COc1ccccc1Oc1ccccc1 | 288 | 79 |  |  |  |  |  | 
9 | CCC(O)C(C)(C)C (stereo not drawn) | 135 | -5 |  |  |  |  |  | 
10 | CCCOC(=O)C(C)C | 135 |  |  | 0.924 |  |  |  | 
11 | C=CC(=O)O[C@@H]1C[C@H]2CC[C@]1(C)C2(C)C |  | 97 |  |  |  |  |  | 
12 | CC(C)c1ccc(C=O)cc1 | 236 |  | readily biodegradable |  |  |  |  | 
13 | CS(=O)(=O)O |  | 20 | readily biodegradable | -3.37 |  |  |  | 
14 | Nc1ncc(C=O)s1 |  |  | readily biodegradable |  |  |  |  | 
15 | NCCCC1OCC2(CO1)COC(CCCN)OC2 (stereo not drawn) |  |  | not readily biodegradable |  |  |  |  | 
16 | OC(C(F)(F)F)(C(F)(F)F)C(F)(F)F | 45 |  |  |  |  |  |  | 
17 | O=C1c2ccccc2C(=O)N1CCBr |  | 82.5 |  |  |  |  |  | 
18 | CCOC(=O)CCC(C)CC (stereo not drawn) | 180 |  |  |  |  |  |  | 
19 | O=C1CCC(=O)N1 | 288 | 126 |  | -4.12 |  |  |  | 
20 | CC(C)CCOCc1ccccc1 | 237 |  |  |  |  |  |  | 
21 | CN(C)C(=S)Cl |  | 42.5 |  |  |  |  |  | 

Row | SMILES | boiling point [°C] | melting point [°C] | ready biodegradability | log10 vapour pressure (mmHg) | log10 biodegradation half-life (days) | log10 Koc (L/kg) | log10 Koa | log10 Henry constant (atm·m³/mol)
22 | CC(C)OC(=O)C(O)(c1ccc(Br)cc1)c1ccc(Br)cc1 |  | 77 |  | -7.09 |  |  |  | 
23 | Cc1cc(C)[nH]n1 | 218 | 108 |  |  |  |  |  | 
24 | Cc1ccc(S)c(S)c1 |  | 29 |  |  |  |  |  | 
25 | C(COCCOCC1CO1)OCCOCC1CO1 (stereo not drawn) |  | -13 |  |  |  |  |  | 
26 | O=C(O)c1ccc(-c2ccccc2)cc1 |  | 228 |  |  |  |  |  | 
27 | CCOC(=O)C(C)(C)Oc1ccc(Cl)cc1 |  |  | readily biodegradable |  |  |  |  | 
28 | CC1=CC(C)(C)Nc2ccccc21 | 260 | 26.5 | not readily biodegradable |  |  |  |  | 
29 | C=Cc1cccc(Cl)c1 |  |  | not readily biodegradable | -0.0083 |  |  |  | 
30 | CN(CCCN1c2ccccc2CCc2ccccc21)CC(=O)c1ccc(Cl)cc1 |  | 105 |  |  |  |  |  | 
31 | ClCC(Cl)(CCl)CCl | 211 |  |  |  |  |  |  | 
32 | Cc1ccc(Cc2ccc(C)cc2)cc1 | 286 | 28 |  |  |  |  |  | 
33 | CSC(=O)c1cccc2nnsc12 | 267 | 133 |  | -5.48 |  |  |  | 
34 | CC(C)CC(C)(C)C | 99.2 | -107 | not readily biodegradable | 1.69 | 1.6 |  |  | 
35 | CC(C)=CCCC(C)CCO (racemic) | 224 |  |  |  |  |  |  | 
36 | CCN(O)CC | 133 | 10 | not readily biodegradable | 0.526 |  |  |  | 
37 | Clc1ccc(Cl)s1 | 162 | -40.5 |  | 0.934 |  |  |  | 
38 | C1=COCCC1 | 86 | -70 |  |  |  |  |  | 
39 | COC(=O)C(C)C(C)=O (stereo not drawn) | 177 |  |  |  |  |  |  | 
40 | COC(OC)OC | 104 |  |  |  |  |  |  | 
41 | C[C@@H]1CCC[C@H](C)C1 (racemic) |  | -82.8 |  |  |  |  |  | 
42 | Cc1ccccc1OC(=O)Oc1ccccc1C |  | 60 |  |  |  |  |  | 

Row | SMILES | boiling point [°C] | melting point [°C] | ready biodegradability | log10 vapour pressure (mmHg) | log10 biodegradation half-life (days) | log10 Koc (L/kg) | log10 Koa | log10 Henry constant (atm·m³/mol)
43 | CC(O)CNC1CCCCC1 (stereo not drawn) |  |  |  | -1.8 |  |  |  | 
44 | N#Cc1ccc(-c2ccc(C#N)cc2)cc1 |  | 238 |  |  |  |  |  | 
45 | CNc1cnn(-c2cccc(C(F)(F)F)c2)c(=O)c1Cl |  | 184 |  | -7.54 |  | 3.28 |  | 
46 | CCCCOC(=O)/C=C\C(=O)OCCCC | 281 | -85 |  | -3.21 |  |  |  | 
47 | CNC(=S)NCc1ccccc1 |  | 75 |  |  |  |  |  | 
48 | Clc1ccc(-c2cc(Cl)c(Cl)cc2Cl)cc1Cl |  |  |  | -5.05 |  |  | 9.82 | 
49 | O=C(O)CCCCCC(=O)O | 342 | 106 |  | -7.05 |  |  |  | 
50 | CCCCCCCCCCCCSP(SCCCCCCCCCCCC)SCCCCCCCCCCCC |  |  | not readily biodegradable |  |  |  |  | 
51 | CCCC(=O)OC(=O)CCC | 200 | -75 |  | -0.548 |  |  |  | 
52 | CCOC(=O)C(OCC)OCC | 199 |  |  |  |  |  |  | 
53 | CCCCCCCCCCOC(=O)c1ccccc1C(=O)OCCCCCC |  | -4 |  |  |  |  |  | 
54 | Ic1cccc(I)c1I |  | 116 |  |  |  |  |  | 
55 | Cc1ccc([N+](=O)[O-])c(O)c1 |  | 53 | not readily biodegradable | -1.7 |  |  |  | -4.89
56 | C=C(C)[C@@H]1CC[C@@H](C)[C@@H](O)C1 | 224 |  |  |  |  |  |  | 
57 | COP(=S)(OC)Oc1ccc([N+](=O)[O-])c(Cl)c1 |  | 21 |  | -5.4 |  |  |  | 
58 | CC(=O)CC(=O)C(F)(F)F | 106 |  |  |  |  |  |  | 
59 | CN(C)c1ccc(C#N)cc1 | 318 | 74 |  |  |  |  |  | 
60 | c1ccc2cnncc2c1 | 316 | 90.5 |  |  |  |  |  | 
61 | O=[N+]([O-])c1ccccc1Nc1ccccc1 |  | 75 |  | -5 |  |  |  | 
62 | Cc1n[nH]c(=O)[nH]c1=O |  | 211 |  |  |  |  |  | 
63 | CCCCCOC(=O)Nc1ccccc1 |  |  |  |  |  | 2.61 |  | 

From the OPERA property sets (Mansouri et al. 2018)
